Laboratory results taken from patent US11020398B2, “Amino-pyrrolopyrimidinone compounds and methods of use thereof” (ArQule, Inc., priority 2016, dated 2021).

Molecular target: phosphorylated form of full length BTK (active BTK) (Homo sapiens (Human), UniProt Q06187)
Assay: Mobility shift assay (MSA, Caliper LabChip), active BTK assay
Assay type: biochemical
Conditions: Assay type B (MSA using active BTK)
Protocol: The active BTK assay consists of phosphorylated form of full length BTK. […] The enzyme inhibitor complexes is incubated, before the kinase activation reaction is initiated.
Mobility Shift Assay (MSA)
The active BTK assay consisted of phosphorylated form of full length BTK. […] The enzyme inhibitor complexes was incubated for 30 minutes at the room temperature and the kinase activation reaction was initiated by the addition of 1 μM Srctide peptide substrate and […].

Chain of phosphorylated form of full length BTK (active BTK) (Q06187 whole entry): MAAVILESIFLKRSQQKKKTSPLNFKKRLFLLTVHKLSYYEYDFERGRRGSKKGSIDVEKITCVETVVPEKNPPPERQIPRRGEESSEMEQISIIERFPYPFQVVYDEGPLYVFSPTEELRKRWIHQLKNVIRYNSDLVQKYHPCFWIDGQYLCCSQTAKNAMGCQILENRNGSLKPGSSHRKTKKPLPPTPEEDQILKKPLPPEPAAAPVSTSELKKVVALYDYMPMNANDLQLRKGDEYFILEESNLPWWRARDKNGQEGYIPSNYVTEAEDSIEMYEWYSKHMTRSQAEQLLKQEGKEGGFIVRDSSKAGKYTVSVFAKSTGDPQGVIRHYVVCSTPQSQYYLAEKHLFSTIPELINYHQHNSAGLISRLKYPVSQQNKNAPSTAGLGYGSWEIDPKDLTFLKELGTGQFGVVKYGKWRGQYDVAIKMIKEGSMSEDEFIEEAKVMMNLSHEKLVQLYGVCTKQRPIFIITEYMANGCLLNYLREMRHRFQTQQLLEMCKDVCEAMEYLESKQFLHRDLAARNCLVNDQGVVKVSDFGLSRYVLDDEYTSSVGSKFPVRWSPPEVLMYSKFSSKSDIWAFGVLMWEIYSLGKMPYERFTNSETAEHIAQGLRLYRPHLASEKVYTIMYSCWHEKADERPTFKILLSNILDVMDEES

In the case of O=C(c1ccc(Oc2ccccc2)cc1Cl)c1c[nH]c2ncnc(N[C@H]3CC[C@@H](O)[C@@H](O)C3)c12 (racemic) [Compound I-179, rac-(2-chloro-4-phenoxyphenyl)(4-(((1S,3S,4R)-3,4-dihydroxycyclohexyl)amino)-7H-pyrrolo[2,3-d]pyrimidin-5-yl)methanone], the IC50 is reported as 1.8 nM.

In the case of O=C(c1ccc(Oc2ccccc2)cc1Cl)c1c[nH]c2ncnc(N[C@H]3CC[C@H](O)[C@H](O)C3)c12 (racemic) [Compound I-180, rac-(2-chloro-4-phenoxyphenyl)(4-(((1S,3R,4S)-3,4-dihydroxycyclohexyl)amino)-7H-pyrrolo[2,3-d]pyrimidin-5-yl)methanone], the IC50 is reported as 1.8 nM.

CC(O)CCCCC(=O)N[C@H]1CC[C@@H](Nc2ncnc3[nH]cc(C(=O)c4ccc(Oc5ccccc5)cc4Cl)c23)CC1 (mixture of isomers) [Compound I-212, rac-N-(cis-4-((5-(2-chloro-4-phenoxybenzoyl)-7H-pyrrolo[2,3-d]pyrimidin-4-yl)amino)cyclohexyl)-6-hydroxyheptanamide] was tested, and the IC50 was 2.9 nM.

Molecule CC(O)CCCCCC(=O)N[C@H]1CC[C@@H](Nc2ncnc3[nH]cc(C(=O)c4ccc(Oc5ccccc5)cc4Cl)c23)CC1 (mixture of isomers) [Compound I-214, rac-N-(cis-4-((5-(2-chloro-4-phenoxybenzoyl)-7H-pyrrolo[2,3-d]pyrimidin-4-yl)amino)cyclohexyl)-7-hydroxyoctanamide] has an IC50 of 7.4 nM.

C[C@H](O)C(=O)N(C)[C@H]1CC[C@@H](Nc2ncnc3[nH]cc(C(=O)c4ccccc4Cl)c23)CC1 [Compound I-106, (S)—N-(cis-4-((5-(2-chlorobenzoyl)-7H-pyrrolo[2,3-d]pyrimidin-4-yl)amino)cyclohexyl)-2-hydroxy-N-methylpropanamide] showed an IC50 of 4.6 nM.

COC[C@]1(O)CC[C@H](Nc2ncnc3[nH]cc(C(=O)c4ccccc4Cl)c23)CC1 [Compound I-107, (2-chlorophenyl)(4-((trans-4-hydroxy-4-(methoxymethyl)cyclohexyl)amino)-7H-pyrrolo[2,3-d]pyrimidin-5-yl)methanone] gave an IC50 of 12 nM.

In the case of COC[C@]1(O)CC[C@@H](Nc2ncnc3[nH]cc(C(=O)c4ccccc4Cl)c23)CC1 [Compound I-108, (2-chlorophenyl)(4-((cis-4-hydroxy-4-(methoxymethyl)cyclohexyl)amino)-7H-pyrrolo[2,3-d]pyrimidin-5-yl)methanone], the IC50 is reported as 7 nM.

In the case of COC1CN([C@H]2CC[C@@H](Nc3ncnc4[nH]cc(C(=O)c5ccccc5Cl)c34)CC2)C1 [Compound I-109, (2-chlorophenyl)(4-((cis-4-(3-methoxyazetidin-1-yl)cyclohexyl)amino)-7H-pyrrolo[2,3-d]pyrimidin-5-yl)methanone], the IC50 is reported as 3.2 nM.

Molecule COC1CN([C@H]2CC[C@H](Nc3ncnc4[nH]cc(C(=O)c5ccccc5Cl)c34)CC2)C1 [Compound I-110, (2-chlorophenyl)(4-((trans-4-(3-methoxyazetidin-1-yl)cyclohexyl)amino)-7H-pyrrolo[2,3-d]pyrimidin-5-yl)methanone] has an IC50 of 16 nM.

Molecule CC1(O)CN([C@H]2CC[C@@H](Nc3ncnc4[nH]cc(C(=O)c5ccccc5Cl)c34)CC2)C1 [Compound I-111, (2-chlorophenyl)(4-((cis-4-(3-hydroxy-3-methylazetidin-1-yl)cyclohexyl)amino)-7H-pyrrolo[2,3-d]pyrimidin-5-yl)methanone] has an IC50 of 3 nM.

Molecule CC1(O)CN([C@H]2CC[C@H](Nc3ncnc4[nH]cc(C(=O)c5ccccc5Cl)c34)CC2)C1 [Compound I-112, (2-chlorophenyl)(4-((trans-4-(3-hydroxy-3-methylazetidin-1-yl)cyclohexyl)amino)-7H-pyrrolo[2,3-d]pyrimidin-5-yl)methanone] has an IC50 of 18 nM.

CC1(N)CN([C@H]2CC[C@@H](Nc3ncnc4[nH]cc(C(=O)c5ccccc5Cl)c34)CC2)C1 [Compound I-113, (4-((cis-4-(3-amino-3-methylazetidin-1-yl)cyclohexyl)amino)-7H-pyrrolo[2,3-d]pyrimidin-5-yl)(2-chlorophenyl)methanone] showed an IC50 of 3.6 nM.

In the case of CC1(N)CN([C@H]2CC[C@H](Nc3ncnc4[nH]cc(C(=O)c5ccccc5Cl)c34)CC2)C1 [Compound I-114, (4-((trans-4-(3-amino-3-methylazetidin-1-yl)cyclohexyl)amino)-7H-pyrrolo[2,3-d]pyrimidin-5-yl)(2-chlorophenyl)methanone], the IC50 is reported as 23 nM.

Molecule CC(C)(O)C(=O)N[C@H]1CC[C@@H](Nc2ncnc3[nH]cc(C(=O)c4ccccc4Cl)c23)CC1 [Compound I-115, N-(cis-4-((5-(2-chlorobenzoyl)-7H-pyrrolo[2,3-d]pyrimidin-4-yl)amino)cyclohexyl)-2-hydroxy-2-methylpropanamide] has an IC50 of 5.8 nM.

CC(=O)N[C@@H](C)[C@@H]1CC[C@@H](Nc2ncnc3[nH]cc(C(=O)c4ccccc4Cl)c23)CO1 [Compound I-116, N—((S)-1-((2S,5R)-5-((5-(2-chlorobenzoyl)-7H-pyrrolo[2,3-d]pyrimidin-4-yl)amino)tetrahydro-2H-pyran-2-yl)ethyl)acetamide] showed an IC50 of 5.9 nM.

Molecule CC(=O)N[C@@H](C)[C@@H]1CC[C@@H](Nc2ncnc3[nH]cc(C(=O)c4ccccc4C)c23)CO1 [Compound I-117, N—((S)-1-((2S,5R)-5-((5-(2-methylbenzoyl)-7H-pyrrolo[2,3-d]pyrimidin-4-yl)amino)tetrahydro-2H-pyran-2-yl)ethyl)acetamide] has an IC50 of 5.9 nM.

CC(=O)NC[C@@H]1CC[C@@H](Nc2ncnc3[nH]cc(C(=O)c4ccccc4Cl)c23)CO1 [Compound I-118, N-(((2S,5R)-5-((5-(2-chlorobenzoyl)-7H-pyrrolo[2,3-d]pyrimidin-4-yl)amino)tetrahydro-2H-pyran-2-yl)methyl)acetamide] was tested, and the IC50 was 4.4 nM.

Molecule CC(=O)NC[C@@H]1CC[C@@H](Nc2ncnc3[nH]cc(C(=O)c4ccccc4C)c23)CO1 [Compound I-119, N-(((2S,5R)-5-((5-(2-methylbenzoyl)-7H-pyrrolo[2,3-d]pyrimidin-4-yl)amino)tetrahydro-2H-pyran-2-yl)methyl)acetamide] has an IC50 of 5.1 nM.

In the case of CS(=O)(=O)Nc1cccc(C(=O)c2c[nH]c3ncnc(N[C@H]4CC[C@@H](N)CC4)c23)c1 [Compound I-120, N-(3-(4-((cis-4-aminocyclohexyl)amino)-7H-pyrrolo[2,3-d]pyrimidine-5-carbonyl)phenyl)methanesulfonamide], the IC50 is reported as 121 nM.

With N[C@H]1CC[C@@H](Nc2ncnc3[nH]cc(C(=O)c4cccc(NS(=O)(=O)c5ccccc5)c4)c23)CC1 [Compound I-121, N-(3-(4-((cis-4-aminocyclohexyl)amino)-7H-pyrrolo[2,3-d]pyrimidine-5-carbonyl)phenyl)benzenesulfonamide] the IC50 was 7.3 nM.

Molecule CC(=O)NC[C@@H]1CC[C@@H](Nc2ncnc3[nH]cc(C(=O)c4ccc(Oc5ccccc5)cc4Cl)c23)CO1 [Compound I-127, N-(((2S,5R)-5-((5-(2-chloro-4-phenoxybenzoyl)-7H-pyrrolo[2,3-d]pyrimidin-4-yl)amino)tetrahydro-2H-pyran-2-yl)methyl)acetamide] has an IC50 of 1.63 nM.

N[C@H]1CC[C@@H](Nc2ncnc3[nH]cc(C(=O)c4ccc(Oc5ccccc5)cc4)c23)CC1 [Compound I-130, (4-((cis-4-aminocyclohexyl)amino)-7H-pyrrolo[2,3-d]pyrimidin-5-yl)(4-phenoxyphenyl)methanone] showed an IC50 of 3.2 nM.

Molecule N[C@H]1CC[C@@H](Nc2ncnc3[nH]cc(C(=O)c4cccc(Oc5ccccc5)c4)c23)CC1 [Compound I-131, (4-((cis-4-aminocyclohexyl)amino)-7H-pyrrolo[2,3-d]pyrimidin-5-yl)(3-phenoxyphenyl)methanone] has an IC50 of 3.8 nM.

With C[C@@H](O)[C@@H](CO)NC(=O)[C@@H]1CC[C@@H](Nc2ncnc3[nH]cc(C(=O)c4ccc(Oc5ccccc5)cc4)c23)CO1 [Compound I-175, (2S,5R)—N-((2R,3R)-1,3-dihydroxybutan-2-yl)-5-((5-(4-phenoxybenzoyl)-7H-pyrrolo[2,3-d]pyrimidin-4-yl)amino) tetrahydro-2H-pyran-2-carboxamide] the IC50 was 3.1 nM.

O=C(c1ccc(Oc2ccccc2)cc1)c1c[nH]c2ncnc(N[C@@H]3CC[C@@H](C(=O)NC[C@@H](O)CO)OC3)c12 [Compound I-176, (2S,5R)—N—((R)-2,3-dihydroxypropyl)-5-((5-(4-phenoxybenzoyl)-7H-pyrrolo[2,3-d]pyrimidin-4-yl)amino)tetrahydro-2H-pyran-2-carboxamide] gave an IC50 of 2.5 nM.

CN(C)C[C@]1(O)CC[C@H](Nc2ncnc3[nH]cc(C(=O)c4ccc(Oc5ccccc5)cc4Cl)c23)CC1 [Compound I-177, (2-chloro-4-phenoxyphenyl)(4-((trans-4-((dimethylamino)methyl)-4-hydroxycyclohexyl)amino)-7H-pyrrolo[2,3-d]pyrimidin-5-yl)methanone] showed an IC50 of 1.7 nM.

For CN(C)C[C@]1(O)CC[C@@H](Nc2ncnc3[nH]cc(C(=O)c4ccc(Oc5ccccc5)cc4Cl)c23)CC1 [Compound I-178, (2-chloro-4-phenoxyphenyl)(4-((cis-4-((dimethylamino)methyl)-4-hydroxycyclohexyl)amino)-7H-pyrrolo[2,3-d]pyrimidin-5-yl)methanone], the IC50 was 2.2 nM.

In the case of CN(C)CC(=O)N[C@H]1CC[C@@H](Nc2ncnc3[nH]cc(C(=O)c4ccc(Oc5ccccc5)cc4Cl)c23)CC1 [Compound I-181, N-(cis-4-((5-(2-chloro-4-phenoxybenzoyl)-7H-pyrrolo[2,3-d]pyrimidin-4-yl)amino)cyclohexyl)-2-(dimethylamino)acetamide], the IC50 is reported as 0.98 nM.

C[C@@H](O)[C@@H]1CC[C@@H](Nc2ncnc3[nH]cc(C(=O)c4ccc(Oc5cccc(F)c5)cc4Cl)c23)CO1 [Compound I-182, (2-chloro-4-(3-fluorophenoxy)phenyl)(4-(((3R,6S)-6-((R)-1-hydroxyethyl)tetrahydro-2H-pyran-3-yl)amino)-7H-pyrrolo[2,3-d]pyrimidin-5-yl)methanone] was tested, and the IC50 was 1.5 nM.
